Values of other authors as cited in patent publication US20050181516A1, “Bioequivalence determination using expression profiling” (priority 2002, published 2005).

Target: macrophilin FKBP12 (Homo sapiens, UniProt P62942)
Conditions: relative to FK506; cited from earlier work

Chain of macrophilin FKBP12 (P62942 whole entry): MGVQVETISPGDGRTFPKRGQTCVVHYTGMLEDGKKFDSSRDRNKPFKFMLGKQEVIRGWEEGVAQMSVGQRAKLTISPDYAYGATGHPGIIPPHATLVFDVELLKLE

Q: With `CC[C@@H]1/C=C(\C)C[C@H](C)C[C@H](OC)[C@H]2O[C@@](O)(C(=O)C(=O)N3CCCC[C@H]3C(=O)O[C@H](/C(C)=C/[C@@H]3CC[C@H](Cl)[C@H](OC)C3)[C@H](C)[C@@H](O)CC1=O)[C@H](C)C[C@@H]2OC` [ASM981, 33-Epichloro-33-desoxy-ascomycin] as the compound, how does the “affinity for macrophilin FKBP12, fold lower than FK506” value read?
A: 3 fold
